For this assay, the system named is gamma-secretase. Nature of the assay: gamma-secretase activity in a solubilized membrane preparation (cell-free assay). It counts as biochemical. Conditions: according to McLendon et al., read-out: IC50 activity for inhibiting gamma-secretase. The source says: The activity of compounds of the Formula I of the present invention in inhibiting gamma-secretase activity may be determined in a solubilized membrane preparation generally according to the description provided in McLendon et al. Cell-free assays for γ-secretase activity, The FASEB Journal (Vol. 14, December 2000, pp. 2383-2386).

Bounds are passed on as bounds.

The source of these data is patent US20050222227A1, “Oxazole-amine compounds for the treatment of neurodegenerative disorders” (Pfizer Inc, priority 2004, published 2005).

On to `C/C=C(\C)c1cnc(NC(=O)[C@H](CCC)NC2CCc3cc(F)cc(F)c3C2)o1` (stereo partly drawn) [Example 1, (S)-2-(5,7-difluoro-1,2,3,4-tetrahydronaphthalen-3-ylamino)-N-(5-((E)-but-2-en-2-yl)oxazol-2-yl)pentanamide], for which the IC50 (in general, the concentration that inhibits the measured activity by half) is below 10 µM.
